Reference: ChEMBL document CHEMBL1125759, “A new ionizable chromophore of 1,4-bis(alkylamino)benzo[g]phthalazine which interacts with DNA by intercalation” (J Med Chem, 1991)
Converted amounts (≈) assume the structure as drawn.

Key:
HeLa = assay: In vitro effective dose for its cytostatic activity against HeLa cells.; type: functional; settings: Homo sapiens, read-out: ED50 (the source's name)
[1] = Compound was evaluated for the protonation constant by binding to DNA by intercalation in calf thymus.; type: ADME, Bos taurus; settings: cattle

Row | SMILES | EC50 (HeLa) [µg/mL] | pKa [1]
1 | COCCCNc1nnc(NCCCOC)c2cc3ccccc3cc12 | 10 (≈ 28.2 µM) | 8.3
2 | COc1cc(NS(C)(=O)=O)ccc1Nc1c2ccccc2nc2ccccc12 [AMSACRINE] | – | 7.4
3 | CN(C)CCCNc1nnc(NCCCN(C)C)c2cc3ccccc3cc12 | 1.25 (≈ 3.28 µM) | 6.2
4 | OCCCNc1nnc(NCCCO)c2cc3ccccc3cc12 | 25 (≈ 76.6 µM) | 8.3
